The source of these data is the METLIN SMRT retention time set (Domingo-Almenara et al. 2019).

The nature of the data set: gradient 5% acetonitrile 3 min, to 50% in 2 min, to 85% in 15 min, held 3 min, 100 µL/min. To be noted: column: Zorbax Extend-C18 2.1 x 50 mm; eluents: water / acetonitrile, 0.1% formic acid. The procedure, abridged:
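The mobile phases were water and acetonitrile, each with 0.1% formic acid, pumped at 100 μL/min through a Zorbax Extend-C18 column (2.1 × 50 mm, 1.8 μm). Pure standards were injected as mixtures of ~100 molecules and detected by a quadrupole time-of-flight mass spectrometer in positive and negative ionization mode. Retention time came from computationally picked adduct peaks, each inspected by hand.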
In turn, `COc1ccc(NC(=O)N2CCC(c3noc(-c4cccnc4)n3)C2)cc1` (centres undefined) had an RP-LC retention time of 690 s. Consider `O=C(CC1CCCC1)NC(c1ccccc1)c1nnc(N2CCCCC2)o1` (centres undefined), for which the RP-LC retention time is 881 s. `O=C1CC(c2ccccc2)N(S(=O)(=O)c2cccc3nsnc23)CCCCCCN1` (centres undefined) registered an RP-LC retention time of 886 s. Molecule `CCOc1ccc(N2CC(c3nc(-c4ccc(OC)cc4OC)no3)CC2=O)cc1` (centres undefined) gave an RP-LC retention time of 902 s. For `CC1(C)CNc2cc(NC(=O)c3cccnc3NCc3ccncc3)ccc21`, the RP-LC retention time is 603 s. Under `COc1ccc(CCNC(=O)NCCS(=O)(=O)c2c(C)n(C)c3ccccc23)cc1` stands 740 s. Under `Cc1ccc(CNC(=O)c2ccc3c(c2)Sc2ncccc2C(=O)N3C)cc1` stands 796 s; under `COc1ccc(CCN2CC(=O)N(c3cccc(C)c3)[C@@H]3CS(=O)(=O)C[C@@H]32)cc1`, 830 s.

`CCC(C(=O)N1CCC(N2CCCCC2)CC1)n1nc(C)c2sc3ccccc3c2c1=O` (centres undefined) gave an RP-LC retention time of 676 s. Under `O=C(CCc1nc(-c2ccc(N3CCCC3)cc2)no1)N1CCC2(CC1)OCCO2` stands 945 s.

With `Cc1cc(Nc2ccccc2)nn1C(=O)c1ccc([N+](=O)[O-])cc1`, the RP-LC retention time is 987 s. Under `COc1ccc(CC(=O)Nc2c(C(=O)N3CCN(c4ccccn4)CC3)oc3ccccc23)cc1` stands 675 s; under `Cn1ncc2c3ccccc3n(CCCC(=O)NC3CCN(Cc4ccccc4)CC3)c2c1=O`, 655 s; under `Fc1ccc(-c2nnc(Cc3nc(-c4cccc(C(F)(F)F)c4)no3)o2)cc1`, 1110 s. Under `Cn1nccc1-c1cccc(-c2noc(-c3cncc(Br)c3)n2)c1` stands 1100 s; under `CCN1C(=O)CCc2cc(NS(=O)(=O)c3ccc(Cl)c(Cl)c3)ccc21`, 904 s; under `COc1ccccc1N1CCN(CCN(C(=O)c2ccc(F)cc2)c2ccccn2)CC1`, 792 s.

Regarding `CCOc1ccc(C(C)NC(=O)C2c3ccccc3CCN2C(=O)C2CC2)cc1` (centres undefined), the RP-LC retention time was found to be 907 s.

For the molecule `N#Cc1ccccc1CN1CCC(N2CC(OCC3CC3)C23CCCCC3)CC1` (centres undefined), the RP-LC retention time stood at 607 s. Under `Cc1cc(C)c(S(=O)(=O)N2CCc3c(c(-c4nnc(-c5ccc(F)cc5)o4)nn3C)C2)c(C)c1` stands 1090 s; under `O=C(Nc1cccc(F)c1)N1CCC(N2CCN(Cc3ccccc3)C(=O)C2=O)CC1`, 732 s; under `CC(=O)N1CCN(CCOc2ccc(C3CCN(C4=Nn5c(nnc5C(F)(F)F)CC4)CC3)cc2)CC1`, 686 s. `COCCCn1c(=O)c2ccccc2n(Cc2nc(-c3ccccc3Cl)no2)c1=O` came in with an RP-LC retention time of 1140 s. Under `N#Cc1cccc(NC(=O)N2CCC(c3cc(N)on3)CC2)c1` stands 660 s; under `COc1cc(-c2nc3ccc(Cl)cn3c2Nc2ccc3c(c2)OCO3)ccc1O`, 679 s. `Cc1ccc(C)c(S(=O)(=O)NCC2CN(C)CC23CCCCC3)c1` (centres undefined) yielded an RP-LC retention time of 704 s. Under `CNC(=O)C1CCN(c2nc3ccc(-c4ccc(OC)cc4)nc3s2)CC1` stands 771 s; under `CCCn1ncc(N2CCC(C(=O)NCC3CCCO3)CC2)cc1=O` (centres undefined), 608 s. Under `Cc1ccc(-c2nc(NC(=O)Cc3csc(C)n3)sc2C)cc1` stands 944 s; under `Cc1ccc(S(=O)(=O)N2CCCC(Cn3c(C4CC4)nc4cccnc43)C2)cc1` (centres undefined), 790 s. Under `C=CCNC(=O)c1cn(-c2cc(-c3nc(C(C)C)no3)ccn2)cn1` stands 820 s; under `Cn1nnc2cc(-c3noc(C4CCCO4)n3)ccc21` (centres undefined), 730 s; under `Cc1cc(S(=O)(=O)N(C)CC2CCOCC2)ccc1F`, 879 s. On to `O=C(NCCc1cccs1)C1CCN(C(=O)c2ncn3c2COC(c2ccc(F)cc2)C3)CC1` (centres undefined), for which the RP-LC retention time came out at 774 s. In turn, `COC(=O)c1ccc2c(=O)n(-c3ccc(C)cc3)c(N3CCCCCC3)nc2c1` registered an RP-LC retention time of 1340 s. Regarding `COC(=O)CCc1sc(NC2CCCCC2)nc1-c1ccc(OC)cc1`, the RP-LC retention time turned out to be 856 s. For the molecule `COCCN1C(=O)Cc2ccccc2C1C(=O)NCc1ccccc1` (centres undefined), the RP-LC retention time was determined as 684 s.

On to `CCN1c2ccc(C)cc2C(=O)NC12CCN(C(=O)c1ccc(C)cc1)CC2`, for which the RP-LC retention time was 849 s. On to `CCn1c(C(=O)NC2CCCCCC2)cc2sc(Cl)cc21`, for which the RP-LC retention time came to 1290 s.

With `c1ccc2c(c1)CCN(Cc1nc(-c3ccc(N4CCCC4)nc3)no1)C2`, the RP-LC retention time amounted to 583 s. Under `N#CC1(C(=O)NCCc2ccc(Cl)cc2)CC1` stands 873 s; under `CCCOCCOC(=O)C1=C(C)NC2=C(C(=O)C(C(=O)OC)C(C)C2)C1c1cccc(F)c1` (centres undefined), 965 s. Under `Cc1cc2c(cc1S(=O)(=O)N1CCC(C(=O)N3CCCCC3)CC1)OCC(=O)N2` stands 734 s.

Regarding `CCOC(=O)N1CCN(C(=O)c2cc(-c3ccco3)on2)CC1`, the RP-LC retention time turned out to be 735 s.

For the molecule `O=C(Cc1cccc(Cl)c1)N1CC(n2cnnc2C2CC2)C1`, the RP-LC retention time came to 655 s. As for `Cc1ccc(C(=O)Nc2ccc3c(N4CCCCC4)ncnc3c2)s1`, the RP-LC retention time was found to be 695 s. Under `CCOc1ccccc1C(=O)Nc1c(-c2ccc(OC)cc2)nc2cc(C)ccn12` stands 732 s. The molecule `CCCN(CCC)C(=O)c1cc(NC(=O)CC)cnc1N1CCNCC1` displayed an RP-LC retention time of 588 s. Molecule `CCn1nccc1C(=O)N1c2ccccc2CC1c1nnc(C2CC2)o1` (centres undefined) showed an RP-LC retention time of 755 s. The molecule `Cc1ccc(Cn2c(=O)n(CCNC(=O)c3ccsc3)c3ncccc32)cc1` yielded an RP-LC retention time of 794 s. Take `COCC(C)(O)CNC(=O)c1cc(Cl)ccc1Cl` (centres undefined): the RP-LC retention time is 657 s. `Cc1cc(C)cc(C(=O)N2CCC3(CC2)NC(=O)c2cc(C)ccc2N3C)c1` came in with an RP-LC retention time of 852 s. Under `Cc1ccc2c(=O)c(C(=O)N3CCCC3)cn(CC(=O)Nc3ccc(C)c(C)c3)c2n1` stands 733 s; under `CCCCn1cc(S(=O)(=O)N2CCN(c3cccc(Cl)c3)CC2)c2cccnc21`, 1250 s; under `CC1CCCN(c2ncc(C(=O)NCc3ccccc3)c(N)n2)C1` (centres undefined), 597 s.

In the case of `CC(NC(=O)C1CCCN(c2nccnc2Sc2ccccc2)C1)c1ccccc1` (centres undefined), the RP-LC retention time was found to be 1060 s.

With `CC1(C(=O)NC2CCCC2)CN(S(=O)(=O)c2ccccc2)CC(=O)N1c1ccc(F)cc1` (centres undefined), the RP-LC retention time worked out at 892 s.

As to `CCc1c(C)nc2ncnn2c1N1CCOCC1`, the RP-LC retention time is 653 s. Under `COC[C@@H]1CN(Cc2cc(C)nn2C)C[C@H]1c1ccccn1` stands 559 s. The molecule `CCOC(=O)c1c(S(=O)(=O)N2CCC(C(=O)Nc3ccc(C)cc3C)CC2)c(C)n(CC)c1C` displayed an RP-LC retention time of 928 s. Molecule `CN1CCN(C(=O)c2csc(N3CCN(c4ccccc4F)CC3)n2)CC1` returned an RP-LC retention time of 649 s. Under `CCc1ccccc1N1C[C@@]23C=C[C@@H](O2)[C@H](C(=O)OC)[C@@H]3C1=O` stands 730 s. The molecule `O=C(CSc1nnc2c3sc(N4CCCC4)nc3ncn12)Nc1ccc2c(c1)OCO2` returned an RP-LC retention time of 766 s. Under `O=C(C1=CN(c2ccc(Cl)cc2)c2cc(F)ccc2S1(=O)=O)N1CCOCC1` stands 830 s. Under `CC(=O)N(C1CC1)C1CCOC2(CCN(C(=O)Cc3c(C)noc3C)CC2)C1` (centres undefined) stands 659 s; under `CCNC(=O)C1CCCN(c2nc3ncn(CC(=O)Nc4ccc(Cl)cc4)c(=O)c3s2)C1` (centres undefined), 704 s; under `Cc1cccc(NC(=O)Cn2c(-c3cnccn3)nc(C)c(C)c2=O)c1`, 707 s. Molecule `Cn1c(C2CCN(C(=O)Nc3ccccc3C(F)(F)F)CC2)cc(=O)n2nccc12` gave an RP-LC retention time of 654 s.

On to `CCNS(=O)(=O)c1cccnc1Nc1cccc(F)c1`, for which the RP-LC retention time turned out to be 963 s. On to `CC(C)Cn1c(=O)c2cc(C(=O)NC(C)c3cccs3)nn2c2ccccc21` (centres undefined), for which the RP-LC retention time was determined as 1050 s. In the case of `COc1ccc(Nc2c(-c3ccc(SC)cc3)nc3cnc(Br)cn23)cc1OC`, the RP-LC retention time was 934 s. In the case of `O=C1CN(C(=O)COc2ccccc2)C(c2ccccc2)c2cc(F)ccc2N1` (centres undefined), the RP-LC retention time came to 826 s.

The molecule `O=C(Cn1nc2c3ccc(F)cc3ncn2c1=O)Nc1ccccc1Cl` gave an RP-LC retention time of 725 s. `O=C(CN1C(=O)c2ccccc2C1=O)NCC1CCS(=O)(=O)C1` (centres undefined) displayed an RP-LC retention time of 586 s. Under `CCN(C(=O)c1ccco1)c1nc(-c2ccc(C)cc2)cs1` stands 1280 s; under `COc1cc([C@H]2c3cc4c(cc3[C@@H](O)[C@H](CO)[C@H]2C(=O)Nc2cnccn2)OCO4)cc(OC)c1OC`, 626 s; under `O=C(CNC(=O)c1ccccc1)NC(C(=O)N1CCCc2ccccc21)c1ccccc1` (centres undefined), 816 s. Under `Cc1nc(N)n(CC(=O)N2CCc3ccccc32)c(=O)c1C` stands 616 s. Under `COc1ccc(-n2c(=O)n(C)c(=O)c3cc(C(=O)Nc4ccccc4OC)cnc32)cc1` stands 892 s.
